Data published in patent US20220362311A1, “OPTIMIZED BACTERIA ENGINEERED TO TREAT DISORDERS INVOLVING THE CATABOLISM OF LEUCINE, ISOLEUCINE, AND/OR VALINE” (Synlogic Operating Company, Inc., priority 2019, published 2022).
Where two headings read alike, the source gives them in different places.

Experiments:
rat = details: cited from earlier work
[1] = High-throughput Adh activity assay in E. coli cell lysates; format: biochemical; details: reduction of isovaleraldehyde to isopentanol; secondary screen
Experimental: Cell growth and enzyme preparation. Strains harboring library plasmids were transformed into an E. coli T7 expression host. 5 μL/well of thawed glycerol stocks were stamped into 500 μL/well of LB+100 ug/mL Carbenicillin (LB-Carb100) in half-height deepwell plates, which were sealed with AeraSeals. Samples were incubated at 37° C. and shaken at 1000 RPM in 80% humidity overnight. 50 μL/well of the resulting precultures were stamped into 450 μL/well of LB-Carb100+1 mM IPTG in half-height deepwell plates, which were sealed with AeraSeals. Samples were incubated at 30° C. and shaken at 1000 RPM in 80% humidity overnight. […]
10 uL of lysate was transferred to a half-area flat-bottom plate containing 90 uL/well assay buffer (50 mM MOPS buffer, 0.4 mM NADH, and 30 mM isovaleraldehyde, pH 7.0). Optical absorbance measurements were taken on a plate reader at 340 nm for 10 minutes. […]
To screen the 3×˜1300-member enzyme libraries, high-throughput methods were developed to screen for LeuDH, KivD, and Adh enzyme activities in E. coli cell lysates. […] Cells were lysed, and enzyme activity was measured in cell lysates using enzyme-specific spectrophotometric assays described above in the method section. […]
For each enzyme family, the full library (˜1300 members each) was measured in biological duplicate, and hits were selected based on the highest activity in a single replicate for each enzyme. […]

CCC(C)CO (stereo not drawn) [2-methylbutanol]
Oral LD50 (rat) (rat; oral): 4170 mg/kg

CCC(C)C=O (stereo not drawn) [2-methylbutyraldehyde]
Oral LD50 (rat) (rat; oral): 6884 mg/kg

CC(C)CO [Isobutanol]
Oral LD50 (rat) (rat; oral): 3350 mg/kg
Oral NOAEL* (rat) (No-Observed-Adverse-Effect) (rat; oral): >1450 mg/kg/day

CC(C)C(=O)O [Isobutyric acid]
Oral LD50 (rat) (rat; oral): 2230 mg/kg

CC(C)CCO [Isopentanol]
Oral NOAEL* (rat) (No-Observed-Adverse-Effect) (rat; in vivo, po): 1250 mg/kg/day
Oral LD50 (rat) (rat; oral): >5000 mg/kg

CC(C)CC=O [Isovaleraldehyde]
Oral LD50 (rat) (rat; oral): 5740 mg/kg

B1: ADH2 enzyme from S. cerevisiae: parent alcohol dehydrogenase ADH2 from S. cerevisiae (protein, UniProt P00331 2-348, looked up)
Alcohol dehydrogenase 2: SIPETQKAIIFYESNGKLEHKDIPVPKPKPNELLINVKYSGVCHTDLHAWHGDWPLPTKLPLVGGHEGAGVVVGMGENVKGWKIGDYAGIKWLNGSCMACEYCELGNESNCPHADLSGYTHDGSFQEYATADAVQAAHIPQGTDLAEVAPILCAGITVYKALKSANLRAGHWAAISGAAGGLGSLAVQYAKAMGYRVLGIDGGPGKEELFTSLGGEVFIDFTKEKDIVSAVVKATNGGAHGIINVSVSEAAIEASTRYCRANGTVVLVGLPAGAKCSSDVFNHVVKSISIVGSYVGNRADTREALDFFARGLVKSPIKVVGLSSLPEIYEKMEKGQIAGRYVVDTSK
increase in Adh activity relative to the background lysate activity [1]: did not exhibit activity greater than the background lysate alcohol dehydrogenase activity
